Values joined by “and” are separate entries in the source; they are usually repeats but may differ in a detail not shown here. Equal entries are not always repeated. Toxic doses and inconclusive results are not listed. Rule as the data show it: active = T/C of 150% or more; inactive = T/C below 125%.
Tested on: L1210 leukemia ip in BDF1 mice, survival T/C
Assay: NCI In Vivo Anticancer Drug Screen. Data for tumor model L1210 Leukemia (intraperitoneal) in B6D2F1 (BDF1) mice
Settings: endpoint: mean survival time, higher = longer survival
How it was run: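 Tumor cells were implanted, animals were treated, and survival was followed. The result divides the treated measurement by the vehicle-control measurement.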

[1] = dose: 100.0 mg/kg/injection, schedule: Q01DX009 (ip), vehicle: Klucel (hydroxypropylcellulose) (HPC)
[2] = dose: 200.0 mg/kg/injection, schedule: Q01DX009 (ip), vehicle: Klucel (hydroxypropylcellulose) (HPC)
[3] = dose: 400.0 mg/kg/injection, schedule: Q01DX009 (ip), vehicle: Klucel (hydroxypropylcellulose) (HPC)
[4] = dose: 100.0 mg/kg/injection, schedule: Q04DX002 (ip), vehicle: saline with Tween-80
[5] = dose: 200.0 mg/kg/injection, schedule: Q04DX002 (ip), vehicle: saline with Tween-80
[6] = dose: 400.0 mg/kg/injection, schedule: Q04DX002 (ip), vehicle: saline with Tween-80
[7] = dose: 100.0 mg/kg/injection, schedule: Q04DX003 (ip), vehicle: saline
[8] = dose: 200.0 mg/kg/injection, schedule: Q04DX003 (ip), vehicle: saline
[9] = dose: 100.0 mg/kg/injection, schedule: Q04DX003 (ip), vehicle: Klucel (hydroxypropylcellulose) (HPC)
[10] = dose: 200.0 mg/kg/injection, schedule: Q04DX003 (ip), vehicle: Klucel (hydroxypropylcellulose) (HPC)
[11] = dose: 400.0 mg/kg/injection, schedule: Q04DX003 (ip), vehicle: Klucel (hydroxypropylcellulose) (HPC)
[12] = dose: 100.0 mg/kg/injection, schedule: Q01DX001 (ip), vehicle: saline
[13] = dose: 200.0 mg/kg/injection, schedule: Q01DX001 (ip), vehicle: saline
[14] = dose: 100.0 mg/kg/injection, schedule: Q01DX009 (ip), vehicle: saline
[15] = dose: 100.0 mg/kg/injection, schedule: Q04DX002 (ip), vehicle: saline
[16] = dose: 200.0 mg/kg/injection, schedule: Q01DX009 (ip), vehicle: saline
[17] = dose: 200.0 mg/kg/injection, schedule: Q04DX002 (ip), vehicle: saline
[18] = dose: 400.0 mg/kg/injection, schedule: Q01DX009 (ip), vehicle: saline
[19] = dose: 400.0 mg/kg/injection, schedule: Q04DX002 (ip), vehicle: saline
[20] = dose: 50.0 mg/kg/injection, schedule: Q04DX003 (ip), vehicle: saline

Measured: T/C

CCCCCCCCCCC(=O)N(CCC)CCC
inactive: dose: 100.0 mg/kg/injection, schedule: Q01DX009 (ip), vehicle: carboxymethylcellulose (CMC) 97 % of control | dose: 100.0 mg/kg/injection, schedule: Q04DX002 (ip), vehicle: carboxymethylcellulose (CMC) 91 % of control | dose: 200.0 mg/kg/injection, schedule: Q01DX009 (ip), vehicle: carboxymethylcellulose (CMC) 93 % of control and 92 % of control | dose: 200.0 mg/kg/injection, schedule: Q04DX002 (ip), vehicle: carboxymethylcellulose (CMC) 93 % of control | dose: 400.0 mg/kg/injection, schedule: Q01DX009 (ip), vehicle: carboxymethylcellulose (CMC) 86 % of control | dose: 400.0 mg/kg/injection, schedule: Q04DX002 (ip), vehicle: carboxymethylcellulose (CMC) 88 % of control

O=C(CN1CCOCC1)Nc1ccc(S(=O)(=O)c2ccc([N+](=O)[O-])cc2)cc1
inactive: dose: 75.0 mg/kg/injection, schedule: Q01DX001 (ip), vehicle: acetone 93 % of control | dose: 150.0 mg/kg/injection, schedule: Q01DX001 (ip), vehicle: acetone 93 % of control

CC(=O)c1cccc(NC(=O)Nc2ncccc2C)c1
inactive: [1] 102 % of control | [2] 101 % of control | [3] 98 % of control

CN(C)C(=O)NC1CCc2ccc([N+](=O)[O-])cc21 (stereo not drawn)
inactive: [4] 97 % of control | [5] 108 % of control | [6] 119 % of control

NC(c1ccccc1)c1ccccc1
inactive: [7] 104 % of control | [8] 95 % of control

CCCn1/c(=N\N=O)sc2ccccc21
inactive: [9] 93 % of control | [10] 95 % of control | [11] 92 % of control

Cc1c(Cl)cccc1NC(=O)Oc1ccc(-c2ccccc2)cc1
inactive: dose: 50.0 mg/kg/injection, schedule: Q04DX003 (ip), vehicle: saline with Tween-80 97 % of control | dose: 100.0 mg/kg/injection, schedule: Q01DX009 (ip), vehicle: saline with Tween-80 95 % of control and 97 % of control | [4] 93 % of control and 91 % of control | dose: 100.0 mg/kg/injection, schedule: Q04DX003 (ip), vehicle: saline with Tween-80 101 % of control | dose: 200.0 mg/kg/injection, schedule: Q01DX009 (ip), vehicle: saline with Tween-80 104 % of control and 89 % of control | [5] 96 % of control | dose: 200.0 mg/kg/injection, schedule: Q04DX003 (ip), vehicle: saline with Tween-80 100 % of control | [6] 96 % of control and 103 % of control

CC(CC(=O)c1ccc2ccccc2c1)C(=O)O (stereo not drawn)
inactive: dose: 75.0 mg/kg/injection, schedule: Q04DX003 (ip), vehicle: Klucel (hydroxypropylcellulose) (HPC) 97 % of control | dose: 150.0 mg/kg/injection, schedule: Q04DX003 (ip), vehicle: Klucel (hydroxypropylcellulose) (HPC) 92 % of control | dose: 300.0 mg/kg/injection, schedule: Q04DX003 (ip), vehicle: Klucel (hydroxypropylcellulose) (HPC) 107 % of control

Br/C1=C/CCCCCC1
inactive: dose: 75.0 mg/kg/injection, schedule: Q04DX003 (ip), vehicle: saline 102 % of control | dose: 150.0 mg/kg/injection, schedule: Q04DX003 (ip), vehicle: saline 96 % of control

O=C1C=CC(=O)N1c1ccc(Cc2ccc(N3C(=O)C=CC3=O)cc2)cc1
inactive: dose: 26.6 mg/kg/injection, schedule: Q01DX Z (ip), vehicle: methylcellulose (MC) 90 % of control | dose: 40.0 mg/kg/injection, schedule: Q01DX Z (ip), vehicle: methylcellulose (MC) 95 % of control

CCOC(=O)C(Cc1ccc(O)cc1)NP(=O)(OCCCl)OCCCl (stereo not drawn)
inactive: [1] 100 % of control | [9] 95 % of control | [2] 98 % of control | [10] 90 % of control | [3] 100 % of control | [11] 94 % of control

CN(C)C(=O)c1cc[n+](Cc2ccc(Cl)cc2)cc1
inactive: [7] 98 % of control

O=c1c2ccccc2ncn1C1OC(CO)C(O)C1O (stereo not drawn)
inactive: [12] 96 % of control | [13] 102 % of control | dose: 400.0 mg/kg/injection, schedule: Q01DX001 (ip), vehicle: saline 104 % of control

CC(=O)NC1CCCCCCC1
inactive: dose: 100.0 mg/kg/injection, schedule: Q01DX005 (ip), vehicle: saline 103 % of control | [14] 108 % of control | [15] 100 % of control | dose: 200.0 mg/kg/injection, schedule: Q01DX005 (ip), vehicle: saline 109 % of control | [16] 102 % of control | [17] 110 % of control | dose: 400.0 mg/kg/injection, schedule: Q01DX005 (ip), vehicle: saline 109 % of control | [18] 115 % of control | [19] 100 % of control

Cc1ccc(C)c2c3c(sc12)CCCC3
inactive: dose: 100.0 mg/kg/injection, schedule: Q01DX001 (ip), vehicle: carboxymethylcellulose (CMC) 95 % of control | dose: 200.0 mg/kg/injection, schedule: Q01DX001 (ip), vehicle: carboxymethylcellulose (CMC) 90 % of control | dose: 400.0 mg/kg/injection, schedule: Q01DX001 (ip), vehicle: carboxymethylcellulose (CMC) 101 % of control

CC(=O)c1cccc(NC(=O)c2cccc(F)c2)c1
inactive: [1] 95 % of control | [2] 97 % of control | [3] 95 % of control

CSc1ncc2n1C=CN(C(=O)c1ccc([N+](=O)[O-])cc1)C2O (stereo not drawn)
inactive: dose: 25.0 mg/kg/injection, schedule: Q01DX009 (ip), vehicle: saline 89 % of control | dose: 25.0 mg/kg/injection, schedule: Q04DX003 (ip), vehicle: saline 106 % of control | dose: 50.0 mg/kg/injection, schedule: Q01DX009 (ip), vehicle: saline 89 % of control | [20] 111 % of control | [7] 102 % of control

O=[N+]([O-])c1ccc2c(N=Nc3c(O)ccc4ccccc34)c(O)cc(S(=O)(=O)O)c2c1
inactive: [20] 98 % of control | [12] 92 % of control | [13] 92 % of control | [8] 92 % of control

Nc1cc(S(=O)(=O)O)cc2cc(S(=O)(=O)O)cc(O)c12
inactive: dose: 50.0 mg/kg/injection, schedule: Q04DX002 (ip), vehicle: saline 92 % of control | [15] 100 % of control and 118 % of control | [17] 92 % of control | [19] 122 % of control and 92 % of control

NC(N)=Nc1nc2ccc([N+](=O)[O-])cc2[nH]1
inactive: [14] 93 % of control | [7] 90 % of control | [16] 91 % of control | [8] 94 % of control | [18] 96 % of control | dose: 400.0 mg/kg/injection, schedule: Q04DX003 (ip), vehicle: saline 94 % of control
